According to the NIST ThermoML archive (doi:10.1016/j.jct.2007.05.004):

Assay: xn = mol fraction of the nth substance listed
Conditions: 101 kPa, Liquid

COC(C)=O [methyl ethanoate] + CCO
Conditions | mass density, 293.15 K [kg/m3] | mass density, 298.15 K [kg/m3] | mass density, 303.15 K [kg/m3] | viscosity, 293.15 K [mPa·s] | viscosity, 298.15 K [mPa·s] | viscosity, 303.15 K [mPa·s]
x2 = 0 | 933.56 | 926.98 | 920.34 | 0.386 | 0.367 | 0.348
x2 = 0.0493 | 927.83 | 921.31 | 914.73 | 0.383 | 0.363 | 0.345
x2 = 0.0987 | 922 | 915.54 | 909.02 | 0.389 | 0.365 | 0.347
x2 = 0.1998 | 909.85 | 903.54 | 897.15 | 0.398 | 0.377 | 0.359
x2 = 0.3006 | 897.16 | 891 | 884.79 | 0.419 | 0.395 | 0.374
x2 = 0.3973 | 884.52 | 878.56 | 872.54 | 0.444 | 0.418 | 0.394
x2 = 0.4863 | 872.35 | 866.59 | 860.77 | 0.477 | 0.449 | 0.422
x2 = 0.6031 | 855.48 | 849.99 | 844.45 | 0.54 | 0.505 | 0.473
x2 = 0.6972 | 841.15 | 835.91 | 830.62 | 0.615 | 0.572 | 0.537
x2 = 0.7986 | 824.84 | 819.89 | 814.9 | 0.735 | 0.684 | 0.64
x2 = 0.9009 | 807.47 | 802.85 | 798.18 | 0.903 | 0.838 | 0.768
x2 = 0.951 | 798.76 | 794.3 | 789.81 | 1.032 | 0.945 | 0.868

CO [methanol] + COC(C)=O
x1 = 1
Conditions | mass density [kg/m3] | viscosity [mPa·s]
293.15 K | 791.9 | 0.585
298.15 K | 787.2 | 0.545
303.15 K | 782.48 | 0.508

COC(C)=O [methyl ethanoate] + CO
Conditions | mass density, 293.15 K [kg/m3] | mass density, 298.15 K [kg/m3] | mass density, 303.15 K [kg/m3] | viscosity, 293.15 K [mPa·s] | viscosity, 298.15 K [mPa·s] | viscosity, 303.15 K [mPa·s]
x2 = 0 | 933.56 | 926.98 | 920.34 | 0.386 | 0.367 | 0.348
x2 = 0.0471 | 930.26 | 923.71 | 917.1 | 0.378 | 0.359 | 0.341
x2 = 0.0982 | 926.48 | 919.95 | 913.37 | 0.378 | 0.361 | 0.342
x2 = 0.1983 | 918.39 | 911.96 | 905.46 | 0.379 | 0.366 | 0.348
x2 = 0.2912 | 909.97 | 903.65 | 897.26 | 0.382 | 0.364 | 0.347
x2 = 0.4015 | 898.52 | 892.35 | 886.12 | 0.394 | 0.37 | 0.351
x2 = 0.5006 | 886.79 | 880.78 | 874.71 | 0.404 | 0.382 | 0.36
x2 = 0.5878 | 875.07 | 869.25 | 863.35 | 0.416 | 0.392 | 0.371
x2 = 0.7017 | 857.33 | 851.73 | 846.09 | 0.442 | 0.416 | 0.393
x2 = 0.8015 | 838.91 | 833.57 | 828.19 | 0.472 | 0.443 | 0.417
x2 = 0.9008 | 817.51 | 812.45 | 807.37 | 0.521 | 0.486 | 0.455
x2 = 0.9504 | 805.16 | 800.29 | 795.38 | 0.551 | 0.516 | 0.483
